Assay results published in patent publication US9290529B2, “Carbonic anhydrase inhibitors and method of their production” (USTAV ORGANICKE CHEMIE A BIOCHEMIE AKADEMIE VED CESKE …, priority 2011, dated 2016).

How the values were obtained:
[1] = target: T1, human carbonic anhydrase II (hCA II) (Homo sapiens, UniProt P00918); assay: Colorimetric carbonic anhydrase inhibition assay (CO2 hydration, phenol red), hCA II; type: biochemical; conditions: 0° C., HEPES pH 7.0
T1 construct: purchased Sigma Aldrich C6165
Experimental: (§1) The compounds were assayed for inhibition activity of two isoforms of human carbonic anhydrase: hCA II and hCA IX. The human carbonic anhydrase II (HCA II) was purchased from Sigma Aldrich (Cat. No. C6165) in the form of lyophilized protein, which was dissolved before use in 10 mmol·l^−1 HEPES pH 7.0 to a concentration of 300 μmol·l^−1 and further diluted as required. Human carbonic anhydrase IX (HCA IX) was prepared by recombinant expression system in insect (Drosophila expression system, Invitrogen). […] This protein was further purified from media by chelating chromatography carrier His-Select Nickel Affinity Gel (Sigma, Cat No. P6611) and gel chromatography (Superdex 200 GL 30/300, GE Healthcare) according to the manufacturer's recommendations.
(§2) The principle of the method is based on measuring the rate of acidification of the solution that is observed as the color-shift of the acid-base-indicator (fenol red). The reaction was conducted in a glass tube placed in an ice bath (0° C., all stock solutions and enzymes were kept at the same temperature). […] This was followed by a CO2 saturation (stream flow 50 ml/min.) using a needle (18 G) up to color transition of fenol-red from red to yellow (typically 60 seconds by default). […] End point of reaction was determined by visual comparison with reference tube containing acid-base indicator (0.01% (wt./vol.) Fenol-red) and the pH adjusted to 7.0. […] Molar activity was calculated according to the formula:
(§3) [formula] where tB is the time of negative control without enzyme and tS is the time measured with an enzyme sample (and inhibitor), nprot is the number of moles of protein present in the sample. The value of IC50 for the inhibitor concentration corresponds inhibitor contraction required to decrease the specific activity to half of the value of non-inhibited enzyme. Selectivity towards CA IX inhibitor was calculated as the ratio of IC50 values for inhibition of HCA II against the value of IC50 for inhibition CA IX enzyme.

[2] = target: T2, human carbonic anhydrase IX (hCA IX) (Homo sapiens, UniProt Q16790); assay: Colorimetric carbonic anhydrase inhibition assay (CO2 hydration, phenol red), hCA IX; type: biochemical; conditions: for IC50: 0° C., HEPES pH 7.0, recombinant extracellular CA domain, read-out: IC50 (hCA IX); for Selectivity to hCA IX IC50 (hCA II)/IC50 (hCA IX): ratio of IC50 values
T2 construct: Construct contained the extracellular CA domain (amino acid residues 139-390) cloned into the pMT/BiP/V5-His vector; His tag (from vector pMT/BiP/V5-His) (C); BiP secretion signal (from vector pMT/BiP/V5-His) (N); made in house; host or cells: Drosophila expression system (Invitrogen), insect cells, secreted into SF 900 II medium
Experimental: as §1, §2, §3

HCT116 cells = assay: Flow cytometric measurement of intracellular pH (pHi), HCT116 expressing CAIX; type: cell-based, human
Experimental: (§4) The effect of carborane CAIX (carbonic anhydrase IX) inhibitors was evaluated on colorectal cancer cell line HCT116 expressing CAIX enzyme versus CA IX negative cell line of T-lymphoblastic leukemia CCRF-CEM. Acetazolamide, a known inhibitor of CAIX, was used as a standard. HCT116/CCRF-CEM cells were cultivated in McCoy/RPMI Media supplemented with 10% FCS and antibiotics and seeded at high density ([…] per 3.5 cm dish) to induce pericellular hypoxia and thus stimulate CA IX expression. Measurement of pHi was assessed as described in Cianchi et al. [Cianchi F., et al. Selective inhibition of carbonic anhydrase IX decreases cell proliferation and induces […] apoptosis in human cancer cells. The Journal of Pharmacology and Experimental Therapeutics, 2010, Vol. 334, No. 3, 710-719].
(§5) […] The pHi was measured by flow cytometry in cell cultures pretreated with 10 μM of pH sensitive probe carboxyseminaphtorhoda-fluor-1-acetoxymethyl ester (SNARF, Invitrogen, CA) for 15 min at 37° C. After incubation, the cells were washed twice with PBS. Because the addition of bicarbonate can affect pHi, all incubation and cell washes were performed in bicarbonate-free buffer. SNARF was excited at 488 nm and emitted at 580 and 640 nm. The ratio of the emission wavelengths at 640/580 nm was then used to estimate the pHi from a calibration curve. The calibration curve was prepared by nigericin clamp technique. In this method, after the SNARF labeling of untreated cells, aliquots of cell suspensions were re-suspended in a high potassium containing buffer at specific pH (usually 6.8, 7.0, 7.2, 7.4, 7.6 and 7.8). The cell suspensions were then clamped at a specific pH value by the addition of 0.03 μM nigericin (Sigma-Aldrich). Nigericin is a ionophore that allows the exchange of H for K ions, thus abolishing the pH gradient across the cell membrane. When the internal and external K concentrations are approximately equal, the pH rapidly equilibrates to the pH of the bathing solution. A total of 20,000 events were acquired on a FACS ARIA II flow cytometer (Becton. Dickinson) for further analysis.
(§6) The fluorescent ratio values (640/580 nm) calculated for each pH point were further used to construct calibration curve in Prism software (GraphPad Software, Inc., San Diego, Calif.), from which the pHi values in treated cells were determined (Table 3).

CCRF-CEM cells = assay: Flow cytometric measurement of intracellular pH (pHi), CA IX negative CCRF-CEM; type: cell-based, human; conditions: 50 μM acetazolamide, 24 hour incubation, control 7.362
Experimental: as §4, §5, §6

Row | Compound | IC50 [1] | IC50 [2] | Selectivity to hCA IX IC50 (hCA II)/IC50 (hCA IX) [2] | pHi (HCT116 cells; HCT116, 50 μM acetazolamide, 24 hour incubation, control 7.516) | intracellular acidification in HCT116 cells (HCT116 cells; carboranes 1 μM versus acetazolamide 50 μM) | pHi (CCRF-CEM cells)
1 | 1,1′-bis(3-sulfamoylpropyl)-3,3′-commo-bis(1,2-dicarba-3-cobalta(III)-closo-dodecabor)ate (1-) [CB-25] | 0.04 µM | 0.004 µM | 10 |  |  | 
2 | 1-(2-sulfonamidethyl)-1,2-dicarba-closo-dodecaborane [CB-23] | 0.4 µM | 0.38 µM | 1.05 |  |  | 
3 | 1-(3-sulfamoyl-propyl)-3,3′-commo-(decahydro-1,2-dicarba-3-cobalta(III)-undecahydro-1′,2″-dicarba-closo-dodecabor)ate (1-), sodium salt dihydrate [CB-26] | 0.11 µM | 0.014 µM | 7.9 |  |  | 
4 | 1-ethylenenesulfamide-3,3′-commo-bis(1,2-dicarba-3-cobalta(III)-closo-dodecabor)ate (1-) [CB-30] | 0.57 µM | 0.0007 µM | 814 |  |  | 
5 | 1-propylenesulfamide-3,3′-commo-bis(1,2-dicarba-3-cobalta(III)-closo-dodecabor)ate (1-) [CB-29] | 3.9 µM | 0.022 µM | 177 |  |  | 
6 | 9-sulfamide-10′-amine-2,2′-commo-(1,7,9-tricarba-1′,7′, 10′-tricarba-2-ferra(H)-closo-dodekabor)ane [CB-11] | 83.9 µM | 1.5 µM | 55.9 |  |  | 
7 | CC(=O)Nc1nnc(S(N)(=O)=O)s1 [acetazolamide, reference compound] |  |  |  | 7.47 | mild intracellular acidification | 7.34
